Reference: patent US12516056B2, “Compounds for inhibition of janus kinase 1” (MANKIND PHARMA LTD., priority 2019, dated 2026)
Read-outs that look alike come from different tables or passages of the source.

Experiments:
[1] = system: collagen induced mouse arthritis model; experiment: Mouse model of rheumatoid arthritis (collagen induced arthritis); format: in vivo; conditions: orally dosed, QD for 21 days; reference filgotinib
Text: Rheumatoid arthritis (RA) is an autoimmune disease that can cause joint pain and damage throughout the body. Several cytokines such as IL-6 and IFN-γ activate the Janus kinase/signal transducers and activators of transcription (JAK/STAT) pathway. Inhibition of JAK/STAT pathway is considered as one of the therapeutic options for treatment of rheumatoid arthritis. Rodent models of arthritis can be used to evaluate the therapeutic potential of compounds dosed preventatively or therapeutically. These models include but are not limited to mouse or rat collagen-induced arthritis, rat adjuvant-induced arthritis, and collagen antibody-induced arthritis.
Compounds described herein are tested for JAK/STAT pathway inhibition driven efficacy in collagen induced mouse arthritis model. Compounds were orally dosed, QD for 21 days and at the end of the study, clinical symptoms, body weight and histopathology of ankle and paws were measured. Arthritis score was calculated for the compounds as well as reference standard, filgotinib.

[2] = system: Imiquimod induced dermatitis in mice; experiment: Mouse model of Imiquimod induced psoriasis; format: in vivo, Female BALB/c mice; conditions: 3% topical, QD; for back skin thickness / cumulative psoriasis score compared to vehicle / ear thickness: IMQ induced psoriasis, mice
Description: Imiquimod (IMQ) induced dermatitis closely resembles human psoriasis lesions not only with regard to phenotypic and histological characteristics but also in the development of the lesions. IMQ is a ligand for toll-like receptor 7 (TLR7) and TLR8, and is a potent immune activator. […] Migration of activated dermal dendritic cells to lymph nodes in skin triggers a sequence of events leading to late phase of psoriasis. Compounds described herein are tested for JAK inhibition driven efficacy in Imiquimod induced dermatitis in mice.
Female BALB/c mice were topically dosed with 3% cream formulation containing test compounds. After four hours of test compound administration, 5% Imiquimod was applied on back skin and right ear for five days. On day 6, post dosing with test compounds, the severity of psoriasis was monitored and graded following Psoriasis Area and Severity Index (PASI). Efficacies of the compounds were evaluated based on PASI score. Redness, thickness and scaling of back skin and ear were assessed among the groups for scoring.

Recombinant JAK3 = molecular target: T1, Recombinant JAK3 (Homo sapiens, UniProt P52333); experiment: JAK biochemical assay (LANCE Ultra TR-FRET), JAK3
T1 construct: purchased Carna Biosciences
T1 sequence (P52333 1-1124): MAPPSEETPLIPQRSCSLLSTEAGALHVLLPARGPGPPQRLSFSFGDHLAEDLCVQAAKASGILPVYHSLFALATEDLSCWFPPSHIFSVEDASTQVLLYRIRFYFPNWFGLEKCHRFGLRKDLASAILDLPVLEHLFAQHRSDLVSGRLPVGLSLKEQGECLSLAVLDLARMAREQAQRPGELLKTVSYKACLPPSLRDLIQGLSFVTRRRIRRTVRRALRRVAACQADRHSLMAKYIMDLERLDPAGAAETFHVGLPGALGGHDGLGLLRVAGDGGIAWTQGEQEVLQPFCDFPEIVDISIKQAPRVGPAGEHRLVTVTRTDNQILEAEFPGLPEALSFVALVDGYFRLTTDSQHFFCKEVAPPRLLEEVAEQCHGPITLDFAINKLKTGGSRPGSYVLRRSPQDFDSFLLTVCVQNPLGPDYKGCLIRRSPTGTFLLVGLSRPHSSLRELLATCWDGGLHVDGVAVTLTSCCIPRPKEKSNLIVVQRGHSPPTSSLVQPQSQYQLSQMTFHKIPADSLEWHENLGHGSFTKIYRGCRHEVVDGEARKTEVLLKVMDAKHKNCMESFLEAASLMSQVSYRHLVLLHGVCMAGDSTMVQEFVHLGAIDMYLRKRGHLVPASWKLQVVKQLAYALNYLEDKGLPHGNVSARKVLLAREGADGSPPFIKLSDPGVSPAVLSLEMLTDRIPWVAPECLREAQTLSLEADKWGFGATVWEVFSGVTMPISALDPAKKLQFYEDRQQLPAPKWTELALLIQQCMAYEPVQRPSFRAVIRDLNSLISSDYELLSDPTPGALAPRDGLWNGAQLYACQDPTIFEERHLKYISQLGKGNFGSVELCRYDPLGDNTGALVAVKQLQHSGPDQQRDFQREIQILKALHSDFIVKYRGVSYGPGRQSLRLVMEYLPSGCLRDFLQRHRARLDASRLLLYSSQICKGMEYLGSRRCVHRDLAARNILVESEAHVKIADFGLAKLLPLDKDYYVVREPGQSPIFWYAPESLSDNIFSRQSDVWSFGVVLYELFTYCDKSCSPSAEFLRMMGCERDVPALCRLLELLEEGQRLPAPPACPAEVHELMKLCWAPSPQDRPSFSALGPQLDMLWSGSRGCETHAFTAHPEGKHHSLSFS
In short: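 TR-FRET read-out of ULight substrate phosphorylation by recombinant kinase gives % inhibition relative to vehicle. The assay buffer is HEPES pH 7.5 with EGTA, MgCl2, DTT and Tween-20.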

[3] = system: STAT5 phosphorylation by GMCSF in TF-1 cells; experiment: JAK cellular assay: STAT5 phosphorylation by GMCSF in TF-1 cells (HTRF); format: cell-based; conditions: Homo sapiens, TF-1 cells
In short: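 TF-1 cells starved overnight in low-serum OptiMEM, then 120,000/well in RPMI, preincubated with compound 30 min at 37 °C (0.2% DMSO final). Stimulation 20 min with IL-6 30 ng/ml (pSTAT3) or GMCSF 5 ng/ml (pSTAT5); lysate phospho-STAT by HTRF, unstimulated background subtracted.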

[4] = system: IFN-γ production in NK 92 cells by IL-12; experiment: IFN-γ production in NK 92 cells by IL-12 (ELISA); conditions: NK92, IFN-γ detection from cell supernatants, read-out: Cell based IC50 (μM) NK-92/IL-12*
Description: NK 92 cells were cultured in medium without IL-2 for overnight. Next day, 5000 cells per well NK 92 cells were seeded in a 96 well plate. Compounds were added to cells and incubated for 1 hour. Later IL-12, 10 U/ml was added to cells and incubated for overnight. Supernatant was collected from the wells and IFN-7 secretion was measured by using human IFN-7 ELISA kit. Absorbance was measured at 450 nm in BMG FLUOstar. Background signal obtained from cells which were not activated with cytokines, was subtracted from vehicle controls and compound treated wells.

[5] = read-out: Biochemical IC50 (nM) JAK3
[6] = GM-CSF stimulation, read-out: Cell based IC50 (μM) TF-1/GM-CSF

| IC50 (Recombinant JAK3; [5]) | IC50 [3, 6] | IC50 ([3]; GMCSF 5 ng/ml, pSTAT5 HTRF, read-out: Cell Based Assay (μM) TF-1/GMCSF/pSTAT5) | IC50 [4] | IC50 (Recombinant JAK3; recombinant JAK3, TR-FRET, read-out: Biochemical Assay (μM) JAK3) | Compound | efficacy (arthritis score) in collagen induced mouse arthritis model [1] | back skin thickness [2] | cumulative psoriasis score compared to vehicle [2] | ear thickness [2] | efficacy compared to 1133 and reference compound filgotinib (psoriasis model) [2] |
| --- | --- | --- | --- | --- | --- | --- | --- | --- | --- | --- |
| 100 nM | > 10 µM | > 10 µM | > 10 µM |  | CN1CCC(C(O)(c2ccc(-n3cc(-c4ccnc5[nH]cnc45)cn3)nc2)C(F)(F)F)CC1 (centres unmarked) [Example 1133, 1-(6-(4-(3H-imidazo[4,5-b]pyridin-7-yl)-1H-pyrazol-1-yl)pyridin-3-yl)-2,2,2-trifluoro-1-(1-methylpiperidin-4-yl)ethanol] | very good efficacy | significant decrease | statistically significant decrease | significant decrease |  |
| 11 nM | > 10 µM |  | > 10 µM | < 100 nM | CC(C)NC(=O)CC[C@@H](c1ccc(-n2cc(-c3ccnc4[nH]cnc34)cn2)nc1)C(F)(F)F [Example 1215, (S)-4-(6-(4-(3H-imidazo[4,5-b]pyridin-7-yl)-1H-pyrazol-1-yl)pyridin-3-yl)-5,5,5-trifluoro-N-isopropylpentanamide] | very good efficacy | significant decrease | statistically significant decrease | significant decrease | better efficacy |
